Data on three compounds can be found in PMC7318646 (Chemmedchem, 2020).

The target in experiment [1] is T1, HSA (Homo sapiens, UniProt P02768). The experiment can be described thus: Three-dye. The settings on record: three dyes 8 μM each on HSA 25 μM. Format: binding.
Experiment [2] has as its target T1, HSA. The experiment can be described thus: switchSENSE molecular dynamics mode. The following applies: compound concentration tenfold higher than KD.

T1 sequence (P02768 25-609): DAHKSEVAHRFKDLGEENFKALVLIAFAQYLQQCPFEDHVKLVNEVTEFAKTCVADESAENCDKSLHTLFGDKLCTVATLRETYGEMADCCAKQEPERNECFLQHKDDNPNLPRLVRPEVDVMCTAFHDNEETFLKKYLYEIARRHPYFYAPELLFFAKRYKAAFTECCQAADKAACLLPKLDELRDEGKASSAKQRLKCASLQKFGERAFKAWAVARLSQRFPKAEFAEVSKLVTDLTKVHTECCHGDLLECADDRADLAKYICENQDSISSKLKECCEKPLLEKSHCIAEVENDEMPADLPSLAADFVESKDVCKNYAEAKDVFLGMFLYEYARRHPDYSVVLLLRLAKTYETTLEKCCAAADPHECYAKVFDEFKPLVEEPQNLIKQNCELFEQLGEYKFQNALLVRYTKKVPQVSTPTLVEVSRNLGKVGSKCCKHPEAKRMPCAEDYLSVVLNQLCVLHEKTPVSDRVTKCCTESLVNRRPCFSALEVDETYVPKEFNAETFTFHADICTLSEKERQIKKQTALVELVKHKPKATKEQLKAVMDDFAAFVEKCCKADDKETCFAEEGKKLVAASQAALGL

`O=C(O)CCNC(=O)c1ccc(/N=N/c2ccc(O)c(C(=O)O)c2)cc1` [balsalazide]: on HSA [1], the “displacement of NBD-FA (fatty acid binding site probe)” value is “same behavior”, the “displacement of dimethylamino-BODIPY 5 a (Sudlow-site II probe)” value is “same behavior” and the “displacement of warfarin derivative 8 a (Sudlow-site I probe)” value is listed as “same behavior”.

As for “(7‐nitrobenz‐2‐oxa‐1,3‐diazol‐4‐yl)‐C12 fatty acid [NBD‐FA]”, the “conformational change of HSA upon binding (molecular dynamics mode)” value on HSA [2] is “significant expansion”.

Turning to `CCC(Cc1c(I)cc(I)c(O)c1I)C(=O)O` (stereo not drawn) [Iophenoxic acid, iophenoxic acid], on HSA [1], the “displacement of dimethylamino-BODIPY 5 a (Sudlow-site II probe)” value is given as “competitive” and the “displacement of warfarin derivative 8 a (Sudlow-site I probe)” value is given as “competitive”.
